The results in this text go back to ChEMBL document CHEMBL4507320, “Data for DCP probe NVS-MALT1” (2021).

Experiment [1] deals with Sigma intracellular receptor 2 (Homo sapiens, UniProt Q5BJF2). Put plainly: GPCRScan assay: inhibition of Sigma 2. More on the design: radioligand conc. used [nm] 5.0, parental cells HEKT.
Experiment [2] addresses Muscarinic acetylcholine receptor M1 (Homo sapiens) (UniProt P11229). The settings on record: Compound concentration 10.0 uM.
In experiment [3] the target is Cathepsin K (Homo sapiens) (UniProt P43235). Put plainly: Cathepsin K (h) Protease assay. The settings on record: Compound concentration 10.0 uM.
Experiment [4] concerns the target Coagulation factor VII (Homo sapiens) (UniProt P08709). Put plainly: Factor VIIa (h) Protease assay. The settings on record: Compound concentration 10.0 uM.
Experiment [5] concerns the target Cathepsin D (Homo sapiens) (UniProt P07339). Put plainly: Cathepsin D (h) Protease assay. As to conditions: Compound concentration 10.0 uM.
Experiment [6] addresses Coagulation factor X (Homo sapiens) (UniProt P00742). Put plainly: Factor Xa (h) Protease assay. The settings on record: Compound concentration 10.0 uM.
The target of experiment [7] is Cathepsin B (Homo sapiens) (UniProt P07858). Put plainly: Cathepsin B (h) Protease assay. The settings on record: Compound concentration 10.0 uM.
In experiment [8] the target is T1, Mucosa-associated lymphoid tissue lymphoma translocation protein 1 (Homo sapiens, UniProt Q9UDY8).
T1 sequence (Q9UDY8 whole entry): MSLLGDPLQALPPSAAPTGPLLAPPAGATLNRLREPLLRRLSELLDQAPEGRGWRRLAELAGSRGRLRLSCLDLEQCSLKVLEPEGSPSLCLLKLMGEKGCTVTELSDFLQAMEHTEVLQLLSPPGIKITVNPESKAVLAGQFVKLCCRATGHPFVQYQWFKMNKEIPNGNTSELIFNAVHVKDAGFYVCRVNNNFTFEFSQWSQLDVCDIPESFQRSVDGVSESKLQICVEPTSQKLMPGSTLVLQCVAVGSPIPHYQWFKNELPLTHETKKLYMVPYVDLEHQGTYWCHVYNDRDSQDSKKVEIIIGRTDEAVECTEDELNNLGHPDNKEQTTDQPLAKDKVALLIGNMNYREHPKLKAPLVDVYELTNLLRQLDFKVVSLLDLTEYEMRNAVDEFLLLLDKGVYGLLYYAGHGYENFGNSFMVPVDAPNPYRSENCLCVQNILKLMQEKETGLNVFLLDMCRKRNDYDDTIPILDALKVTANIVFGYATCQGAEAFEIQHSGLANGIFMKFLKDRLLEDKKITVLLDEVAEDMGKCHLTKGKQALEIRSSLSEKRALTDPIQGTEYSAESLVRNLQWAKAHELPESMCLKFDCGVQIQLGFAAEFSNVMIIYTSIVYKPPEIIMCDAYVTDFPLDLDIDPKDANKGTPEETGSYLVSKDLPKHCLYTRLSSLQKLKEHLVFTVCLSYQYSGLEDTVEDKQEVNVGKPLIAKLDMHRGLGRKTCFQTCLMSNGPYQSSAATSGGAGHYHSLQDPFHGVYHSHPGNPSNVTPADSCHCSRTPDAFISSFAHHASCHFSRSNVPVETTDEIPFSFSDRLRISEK
The experiment is described as follows: IL-2 – PMA + anti-CD28 + 50% Rat whole blood. In kind it is tissue-based. As to conditions: target entry is the homologue from another species.

Experiment [9] deals with T1, Mucosa-associated lymphoid tissue lymphoma translocation protein 1. Put plainly: Human biochemical (TR-FRET) assay (low salt). (In general: TR-FRET usually uses a lanthanide donor and a delayed reading to cut background.)
Experiment [10] has as its target Beta-1 adrenergic receptor (Homo sapiens) (UniProt P08588). As to conditions: Compound concentration 10.0 uM.
The target in experiment [11] is T1, Mucosa-associated lymphoid tissue lymphoma translocation protein 1. The experiment is described as follows: IL-2 – PMA + anti-CD28 + 50% Human whole blood. It is filed as tissue-based.

Activity calls are given as the source filed them. The rule behind the calls is not given here.

Chain of Cathepsin K (Homo sapiens) (P43235 whole entry): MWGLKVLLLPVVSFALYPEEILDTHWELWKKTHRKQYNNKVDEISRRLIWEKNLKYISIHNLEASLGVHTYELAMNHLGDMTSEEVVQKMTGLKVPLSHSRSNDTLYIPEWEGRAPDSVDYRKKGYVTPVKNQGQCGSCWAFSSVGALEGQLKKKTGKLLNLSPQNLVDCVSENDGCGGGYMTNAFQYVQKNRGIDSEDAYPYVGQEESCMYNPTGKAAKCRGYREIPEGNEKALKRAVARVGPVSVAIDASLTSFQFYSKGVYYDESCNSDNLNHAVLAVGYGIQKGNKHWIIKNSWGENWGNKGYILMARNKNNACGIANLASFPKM
Chain of Beta-1 adrenergic receptor (Homo sapiens) (P08588 whole entry, looked up): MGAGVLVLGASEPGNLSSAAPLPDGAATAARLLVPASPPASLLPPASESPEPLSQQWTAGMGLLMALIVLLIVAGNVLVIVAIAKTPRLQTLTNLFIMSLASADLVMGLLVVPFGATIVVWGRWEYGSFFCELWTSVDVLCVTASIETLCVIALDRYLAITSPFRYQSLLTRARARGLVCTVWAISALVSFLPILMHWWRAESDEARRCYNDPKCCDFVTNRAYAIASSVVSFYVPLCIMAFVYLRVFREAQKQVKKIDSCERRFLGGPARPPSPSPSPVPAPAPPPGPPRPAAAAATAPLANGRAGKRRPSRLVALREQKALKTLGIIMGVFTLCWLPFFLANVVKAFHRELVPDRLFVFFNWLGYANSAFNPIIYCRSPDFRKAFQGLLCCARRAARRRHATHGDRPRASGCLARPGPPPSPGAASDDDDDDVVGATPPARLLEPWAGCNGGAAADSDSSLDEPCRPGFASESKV
Chain of Coagulation factor X (Homo sapiens) (P00742 41-179 limits assumed): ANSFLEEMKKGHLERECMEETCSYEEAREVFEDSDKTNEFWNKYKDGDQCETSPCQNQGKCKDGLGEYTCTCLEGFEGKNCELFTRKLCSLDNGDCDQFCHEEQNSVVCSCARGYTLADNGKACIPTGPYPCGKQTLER
Chain of Coagulation factor X (Homo sapiens) (P00742 235-488 limits assumed): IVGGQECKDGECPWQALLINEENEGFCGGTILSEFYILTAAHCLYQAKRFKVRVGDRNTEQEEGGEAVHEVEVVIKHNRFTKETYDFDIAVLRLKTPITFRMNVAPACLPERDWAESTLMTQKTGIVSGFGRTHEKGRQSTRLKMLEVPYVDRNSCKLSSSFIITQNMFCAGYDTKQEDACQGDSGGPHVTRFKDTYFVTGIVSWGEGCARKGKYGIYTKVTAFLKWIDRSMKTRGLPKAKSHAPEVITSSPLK
Chain of Muscarinic acetylcholine receptor M1 (Homo sapiens) (P11229 whole entry): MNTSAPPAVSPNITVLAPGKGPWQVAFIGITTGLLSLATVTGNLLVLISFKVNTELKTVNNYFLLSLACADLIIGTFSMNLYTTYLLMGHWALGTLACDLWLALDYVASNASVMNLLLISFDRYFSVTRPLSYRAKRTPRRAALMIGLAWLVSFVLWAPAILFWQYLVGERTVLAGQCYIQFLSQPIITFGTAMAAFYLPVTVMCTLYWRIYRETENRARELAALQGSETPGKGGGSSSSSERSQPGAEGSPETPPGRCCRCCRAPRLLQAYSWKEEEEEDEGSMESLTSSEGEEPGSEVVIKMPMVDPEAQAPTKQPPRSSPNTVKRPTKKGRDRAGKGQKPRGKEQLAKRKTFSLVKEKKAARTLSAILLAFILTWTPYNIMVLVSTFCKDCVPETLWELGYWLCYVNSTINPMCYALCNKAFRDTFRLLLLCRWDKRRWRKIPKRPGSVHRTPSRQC
Chain of Sigma intracellular receptor 2 (Q5BJF2 whole entry): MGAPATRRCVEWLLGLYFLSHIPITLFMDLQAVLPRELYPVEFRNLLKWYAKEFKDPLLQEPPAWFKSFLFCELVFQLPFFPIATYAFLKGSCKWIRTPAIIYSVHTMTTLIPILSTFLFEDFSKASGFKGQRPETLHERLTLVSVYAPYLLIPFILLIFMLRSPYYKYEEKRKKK
Chain of Coagulation factor VII (Homo sapiens) (P08709 61-212 limits assumed): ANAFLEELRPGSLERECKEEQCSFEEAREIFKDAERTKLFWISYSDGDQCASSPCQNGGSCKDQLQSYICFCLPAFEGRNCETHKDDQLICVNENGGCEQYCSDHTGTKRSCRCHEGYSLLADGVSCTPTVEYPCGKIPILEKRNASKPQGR
Chain of Coagulation factor VII (Homo sapiens) (P08709 213-466 limits assumed): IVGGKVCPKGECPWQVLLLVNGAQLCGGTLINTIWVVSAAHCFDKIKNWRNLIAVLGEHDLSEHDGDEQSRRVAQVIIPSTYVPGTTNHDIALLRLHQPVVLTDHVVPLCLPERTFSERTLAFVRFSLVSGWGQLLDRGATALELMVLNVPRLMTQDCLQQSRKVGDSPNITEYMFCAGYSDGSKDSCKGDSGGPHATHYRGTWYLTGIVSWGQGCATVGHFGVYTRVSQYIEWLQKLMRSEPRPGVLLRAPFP
Chain of Cathepsin D (Homo sapiens) (P07339 65-162 limits assumed): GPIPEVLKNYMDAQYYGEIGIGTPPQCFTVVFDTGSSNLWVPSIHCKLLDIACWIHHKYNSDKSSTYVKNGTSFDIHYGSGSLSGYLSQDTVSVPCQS
Chain of Cathepsin D (Homo sapiens) (P07339 169-412 limits assumed): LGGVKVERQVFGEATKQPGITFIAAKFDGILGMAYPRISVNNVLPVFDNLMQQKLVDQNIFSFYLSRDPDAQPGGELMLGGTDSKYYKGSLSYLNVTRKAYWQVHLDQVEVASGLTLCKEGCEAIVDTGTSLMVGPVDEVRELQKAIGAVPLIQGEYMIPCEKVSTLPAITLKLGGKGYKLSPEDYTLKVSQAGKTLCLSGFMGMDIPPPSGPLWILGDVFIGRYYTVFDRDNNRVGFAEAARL

For `CO[C@@H](C)c1c(Nc2ccc([C@@H](N(C)C(=O)C3CCS(=O)(=O)CC3)C(F)(F)F)cc2)cnc2cc(Cl)nn12` [NVS-MALT1-C], the inhibition constant (Ki) in experiment [1] was 890 nM. The inhibition in [2] is -2.39%.

Turning to `CO[C@@H](C)c1c(Nc2ccc([C@H](N(C)C(=O)C3CCS(=O)(=O)CC3)C(F)(F)F)cc2)cnc2cc(Cl)nn12` [NVS-MALT1], the inhibition is 2% in experiment [3]; -1% in experiment [4]; 0% in [5]; -9% in [6]; -4% in experiment [7]; 20.6% in experiment [10]. For the same molecule, the results for the IC50 in [8], in experiment [9] and in experiment [11] were 130 nM (active), 18 nM (active) and 200 nM (active), respectively.

The term Ki denotes the dissociation constant of the complex between target and ligand, obtained from inhibition or displacement. Usually inhibition stands for the drop in the measured response relative to a control, in per cent. The term IC50 denotes the concentration that inhibits the measured activity by half.
